Patent US9340590B2 (priority 2011, dated 2016)
Read-outs that look alike come from different tables or passages of the source. Positions of bridges follow the written chain, without caps; N, C: chain ends. Residues, ends and D or L forms follow the SMILES beside them.

Columns and labels:
[1] = tested on: formalin pain model in male CD-1 mice; conditions: in vivo
hNav1.7 [2] = molecular target: T1, hNav1.7 (Homo sapiens, UniProt Q15858); assay: cell-based
hNav1.4 = hNav1.4 (Homo sapiens, UniProt P35499); assay: cell-based
hNav1.5 [3] = molecular target: T2, hNav1.5 (Homo sapiens, UniProt Q14524); assay: cell-based
[4] = tested on: locomotor activity in male CD-1 mice; conditions: 5 mg/kg s.c.
hNav1.3 [5] = molecular target: T3, hNav1.3 (Homo sapiens, UniProt Q9NY46); assay: cell-based; conditions: IonWorks Quattro, read-out: IWQ Use Nav1.3
hNav1.3 [6] = molecular target: T3, hNav1.3; assay: cell-based; type: cell-based
hNav1.5 [7] = molecular target: T2, hNav1.5; assay: cell-based; conditions: IWQ Use Nav1.5 (μM)
hNav1.7 [8] = molecular target: T1, hNav1.7; assay: cell-based; type: cell-based; conditions: IonWorks Quattro, Use; read-out: IWQ Use Nav1.7
[9] = human plasma, 37° C.
[10] = mouse plasma, 37° C.
[11] = incubation time 0 hr (normalisation point)

T1 sequence (Q15858 whole entry, looked up): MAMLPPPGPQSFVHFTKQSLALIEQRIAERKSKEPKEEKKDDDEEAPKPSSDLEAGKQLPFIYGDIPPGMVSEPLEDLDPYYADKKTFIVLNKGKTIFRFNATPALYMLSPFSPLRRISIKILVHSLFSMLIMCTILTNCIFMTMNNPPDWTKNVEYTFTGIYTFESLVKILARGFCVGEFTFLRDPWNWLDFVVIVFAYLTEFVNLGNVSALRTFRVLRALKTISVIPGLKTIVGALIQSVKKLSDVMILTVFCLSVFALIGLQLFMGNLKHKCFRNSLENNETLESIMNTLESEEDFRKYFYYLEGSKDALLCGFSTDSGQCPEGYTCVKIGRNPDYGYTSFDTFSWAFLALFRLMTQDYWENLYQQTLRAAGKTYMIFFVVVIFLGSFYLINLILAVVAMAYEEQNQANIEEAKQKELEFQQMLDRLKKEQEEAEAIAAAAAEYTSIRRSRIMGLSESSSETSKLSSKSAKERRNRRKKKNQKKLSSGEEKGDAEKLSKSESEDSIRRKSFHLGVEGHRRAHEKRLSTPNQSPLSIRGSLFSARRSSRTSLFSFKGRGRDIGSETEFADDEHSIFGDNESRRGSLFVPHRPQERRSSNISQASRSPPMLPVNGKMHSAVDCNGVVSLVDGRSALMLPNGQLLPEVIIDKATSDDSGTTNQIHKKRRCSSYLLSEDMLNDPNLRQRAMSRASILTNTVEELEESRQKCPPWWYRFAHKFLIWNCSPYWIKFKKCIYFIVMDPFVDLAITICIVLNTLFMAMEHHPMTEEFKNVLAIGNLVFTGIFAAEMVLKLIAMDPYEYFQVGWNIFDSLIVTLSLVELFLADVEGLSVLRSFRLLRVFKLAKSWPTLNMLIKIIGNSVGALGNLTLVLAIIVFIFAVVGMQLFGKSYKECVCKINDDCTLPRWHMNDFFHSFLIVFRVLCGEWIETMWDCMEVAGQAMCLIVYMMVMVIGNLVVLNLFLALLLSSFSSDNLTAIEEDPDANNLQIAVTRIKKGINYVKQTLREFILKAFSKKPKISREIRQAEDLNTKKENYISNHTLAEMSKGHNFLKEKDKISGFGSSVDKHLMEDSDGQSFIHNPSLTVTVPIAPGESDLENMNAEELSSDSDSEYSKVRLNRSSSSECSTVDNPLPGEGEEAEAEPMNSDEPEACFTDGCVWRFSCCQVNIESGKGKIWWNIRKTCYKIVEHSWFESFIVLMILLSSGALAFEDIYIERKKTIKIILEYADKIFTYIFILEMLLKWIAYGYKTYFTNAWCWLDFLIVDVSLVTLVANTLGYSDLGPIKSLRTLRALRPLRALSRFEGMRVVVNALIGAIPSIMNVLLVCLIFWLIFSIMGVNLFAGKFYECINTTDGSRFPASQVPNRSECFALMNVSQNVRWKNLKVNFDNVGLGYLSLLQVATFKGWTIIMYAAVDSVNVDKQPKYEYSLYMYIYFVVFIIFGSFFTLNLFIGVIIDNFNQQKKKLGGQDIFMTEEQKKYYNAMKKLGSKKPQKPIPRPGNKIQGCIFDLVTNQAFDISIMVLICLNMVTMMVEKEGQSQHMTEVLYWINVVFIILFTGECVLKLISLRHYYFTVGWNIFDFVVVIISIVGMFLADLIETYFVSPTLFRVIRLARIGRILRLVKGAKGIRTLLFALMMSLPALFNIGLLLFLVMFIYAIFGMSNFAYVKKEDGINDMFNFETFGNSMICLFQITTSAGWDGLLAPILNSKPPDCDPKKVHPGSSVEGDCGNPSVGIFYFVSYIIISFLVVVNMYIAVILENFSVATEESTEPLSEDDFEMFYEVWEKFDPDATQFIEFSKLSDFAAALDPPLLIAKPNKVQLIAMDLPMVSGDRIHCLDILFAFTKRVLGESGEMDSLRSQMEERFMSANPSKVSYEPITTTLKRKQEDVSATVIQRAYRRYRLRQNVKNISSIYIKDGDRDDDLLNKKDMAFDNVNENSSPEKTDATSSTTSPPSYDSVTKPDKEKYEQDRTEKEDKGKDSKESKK
hNav1.4, sequence (P35499 whole entry, looked up): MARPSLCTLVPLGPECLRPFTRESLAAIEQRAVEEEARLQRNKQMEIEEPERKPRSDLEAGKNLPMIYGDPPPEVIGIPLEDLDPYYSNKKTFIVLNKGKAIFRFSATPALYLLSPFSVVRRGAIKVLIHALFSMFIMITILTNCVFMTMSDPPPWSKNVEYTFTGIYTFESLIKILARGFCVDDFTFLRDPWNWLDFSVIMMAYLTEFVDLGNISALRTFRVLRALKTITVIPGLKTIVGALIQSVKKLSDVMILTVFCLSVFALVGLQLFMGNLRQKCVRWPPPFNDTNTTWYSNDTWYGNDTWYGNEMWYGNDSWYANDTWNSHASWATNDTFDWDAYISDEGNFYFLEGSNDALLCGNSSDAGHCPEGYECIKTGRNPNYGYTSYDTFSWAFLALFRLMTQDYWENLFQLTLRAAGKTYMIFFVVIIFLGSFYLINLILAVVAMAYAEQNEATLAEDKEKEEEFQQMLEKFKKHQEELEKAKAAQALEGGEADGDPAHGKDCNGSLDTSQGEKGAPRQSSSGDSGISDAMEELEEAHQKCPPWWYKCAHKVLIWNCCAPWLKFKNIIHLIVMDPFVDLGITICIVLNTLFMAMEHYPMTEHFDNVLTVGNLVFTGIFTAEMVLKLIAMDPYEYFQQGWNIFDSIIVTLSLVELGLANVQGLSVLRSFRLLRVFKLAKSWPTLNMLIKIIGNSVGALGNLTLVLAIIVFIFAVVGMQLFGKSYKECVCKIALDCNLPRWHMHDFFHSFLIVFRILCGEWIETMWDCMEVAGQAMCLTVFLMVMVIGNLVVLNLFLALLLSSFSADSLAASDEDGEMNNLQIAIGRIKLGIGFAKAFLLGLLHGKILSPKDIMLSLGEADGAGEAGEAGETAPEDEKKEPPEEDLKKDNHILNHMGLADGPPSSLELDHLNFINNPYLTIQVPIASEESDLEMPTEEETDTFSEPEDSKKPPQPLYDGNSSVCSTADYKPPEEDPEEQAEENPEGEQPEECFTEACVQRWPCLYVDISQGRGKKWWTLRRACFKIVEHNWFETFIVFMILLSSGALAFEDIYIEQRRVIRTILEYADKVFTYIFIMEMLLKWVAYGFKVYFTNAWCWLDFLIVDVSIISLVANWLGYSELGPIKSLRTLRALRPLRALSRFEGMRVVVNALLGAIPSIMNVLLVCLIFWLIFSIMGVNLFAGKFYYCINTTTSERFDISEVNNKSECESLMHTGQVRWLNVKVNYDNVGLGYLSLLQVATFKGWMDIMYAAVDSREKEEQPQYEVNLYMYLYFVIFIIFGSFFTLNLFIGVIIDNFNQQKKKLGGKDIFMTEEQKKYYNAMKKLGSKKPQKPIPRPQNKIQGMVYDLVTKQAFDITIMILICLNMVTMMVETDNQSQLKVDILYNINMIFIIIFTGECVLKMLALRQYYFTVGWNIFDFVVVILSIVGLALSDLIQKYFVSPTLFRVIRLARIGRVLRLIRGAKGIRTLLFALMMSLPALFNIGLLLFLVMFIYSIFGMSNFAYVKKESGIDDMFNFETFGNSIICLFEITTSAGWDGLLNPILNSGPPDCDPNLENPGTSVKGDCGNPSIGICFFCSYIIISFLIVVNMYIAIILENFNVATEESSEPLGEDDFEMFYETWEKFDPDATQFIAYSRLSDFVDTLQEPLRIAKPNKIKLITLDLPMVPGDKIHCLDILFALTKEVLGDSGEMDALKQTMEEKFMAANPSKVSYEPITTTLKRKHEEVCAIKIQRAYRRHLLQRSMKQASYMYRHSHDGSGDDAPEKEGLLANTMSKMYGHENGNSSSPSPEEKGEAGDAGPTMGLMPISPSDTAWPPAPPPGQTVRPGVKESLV

CC[C@H](C)[C@@H]1NC(=O)[C@@H]2CSSC[C@@H]3NC(=O)[C@H](C(C)C)NC(=O)[C@H](CC(C)C)NC(=O)[C@H](CC(N)=O)NC(=O)[C@@H]4CCCN4C(=O)[C@H](CCCNC(=N)N)NC(=O)[C@H](CSSC[C@H](NC(=O)[C@@H](N)CC(=O)O)C(=O)N[C@@H](CC(C)C)C(=O)NCC(=O)N[C@@H](Cc4ccccc4)C(=O)N[C@@H](CCSC)C(=O)N[C@@H](CCCNC(=N)N)C(=O)N[C@@H](CCCCN)C(=O)N2)NC(=O)[C@H](CSSC[C@@H](C(=O)N[C@@H](CCCCN)C(=O)N[C@@H](Cc2ccc(O)cc2)C(=O)N[C@H](C(=O)N[C@@H](Cc2ccccc2)C(N)=O)C(C)C)NC(=O)[C@H](CCC(=O)O)NC(=O)[C@H](CCCCN)NC(=O)[C@H](Cc2c[nH]cn2)NC(=O)[C@H]([C@@H](C)O)NC(=O)[C@H](CCCNC(=N)N)NC(=O)[C@H](CO)NC3=O)NC(=O)[C@H](CCCCN)NC(=O)[C@H](CC(=O)O)NC(=O)[C@H](CC(N)=O)NC(=O)[C@H](CC(=O)O)NC(=O)[C@@H]2CCCN2C1=O [[Glu29]GpTx-1(1-34)] (H-DCLGFMRKCIPDNDKCCRPNLVCSRTHKECKYVF-NH2; disulfide 2-17, 9-23, 16-30)
paw edema caused by formalin injection ([1]; mouse): Neither the peptide nor the morphine control significantly reduced | time spent lifting/licking, second phase ([1]; mouse): did not demonstrate a significant reduction

CC(C)C[C@@H]1NC(=O)[C@H](C)NC(=O)CNC(=O)[C@H](CC(C)C)NC(=O)[C@@H](NC(=O)[C@@H](N)CC(=O)O)CSSC[C@@H]2NC(=O)[C@@H]3CSSC[C@@H](C(=O)N[C@@H](CCCCN)C(=O)N[C@@H](Cc4ccc(O)cc4)C(=O)N[C@H](C(=O)N[C@@H](Cc4ccccc4)C(N)=O)C(C)C)NC(=O)[C@H](Cc4c[nH]c5ccccc45)NC(=O)[C@H](CCCNC(=N)N)NC(=O)[C@H](Cc4c[nH]cn4)NC(=O)[C@H](CC(C)C)NC(=O)[C@H](CCCNC(=N)N)NC(=O)[C@H](CO)NC(=O)[C@H](CSSC[C@H](NC(=O)[C@H](CCCCN)NC(=O)[C@H](CCCNC(=N)N)NC1=O)C(=O)N[C@@H](CCC(=O)O)C(=O)N1CCC[C@H]1C(=O)N[C@@H](CC(=O)O)C(=O)N[C@@H](Cc1cn(CCOCCOCCOCCOCCOCCOCCOCCOCCOCCOCCOCCNC(=O)CSCCO)nn1)C(=O)N[C@@H](CC(=O)O)C(=O)N[C@@H](CCCCN)C(=O)N3)NC(=O)[C@H](C(C)C)NC(=O)[C@H](CC(C)C)NC(=O)[C@H](CC(N)=O)NC(=O)[C@@H]1CCCN1C(=O)[C@H](CCCNC(=N)N)NC2=O
Nav1.4/Nav1.7 Use (hNav1.7 [2]): >185 | Nav1.5/Nav1.7 Use (hNav1.7 [2]): >185 | IC50 (hNav1.7 [2]; Nav1.7 Use IC50): 54 nM | IC50 (hNav1.4; Nav1.4 Use IC50): > 10000 nM | IC50 (hNav1.5 [3]): > 10000 nM

CC[C@H](C)[C@@H]1NC(=O)[C@@H]2CSSC[C@@H]3NC(=O)[C@H](C(C)C)NC(=O)[C@H](CC(C)C)NC(=O)[C@H](CC(N)=O)NC(=O)[C@@H]4CCCN4C(=O)[C@H](CCCNC(=N)N)NC(=O)[C@H](CSSC[C@H](NC(=O)[C@@H](N)CC(=O)O)C(=O)N[C@@H](CC(C)C)C(=O)NCC(=O)N[C@@H](C)C(=O)N[C@@H](CC(C)C)C(=O)N[C@@H](CCCNC(=N)N)C(=O)N[C@@H](CCCCN)C(=O)N2)NC(=O)[C@H](CSSC[C@@H](C(=O)N[C@@H](CCCCN)C(=O)N[C@@H](Cc2ccc(O)cc2)C(=O)N[C@H](C(=O)N[C@@H](Cc2ccccc2)C(N)=O)C(C)C)NC(=O)[C@H](Cc2c[nH]c4ccccc24)NC(=O)[C@H](CCCNC(=N)N)NC(=O)[C@H](Cc2c[nH]cn2)NC(=O)[C@H](CC(C)C)NC(=O)[C@H](CCCNC(=N)N)NC(=O)[C@H](CO)NC3=O)NC(=O)[C@H](CCCCN)NC(=O)[C@H](CC(=O)O)NC(=O)[C@H](Cc2cn(CCOCCOCCOCCOCCOCCOCCOCCOCCOCCOCCOCCNC(=O)CSCCO)nn2)NC(=O)[C@H](CC(=O)O)NC(=O)[C@@H]2CCCN2C1=O
Nav1.4/Nav1.7 Use (hNav1.7 [2]): >476 | Nav1.5/Nav1.7 Use (hNav1.7 [2]): >476 | IC50 (hNav1.7 [2]; Nav1.7 Use IC50): 21 nM | IC50 (hNav1.4; Nav1.4 Use IC50): > 10000 nM | IC50 (hNav1.5 [3]): > 10000 nM

CC[C@H](C)[C@@H]1NC(=O)[C@@H]2CSSC[C@@H]3NC(=O)[C@H](C(C)C)NC(=O)[C@H](CC(C)C)NC(=O)[C@H](CC(N)=O)NC(=O)[C@@H]4CCCN4C(=O)[C@H](CCCNC(=N)N)NC(=O)[C@H](CSSC[C@H](NC(=O)[C@@H](N)CC(=O)O)C(=O)N[C@@H](CC(C)C)C(=O)NCC(=O)N[C@@H](Cc4ccccc4)C(=O)N[C@@H](CCSC)C(=O)N[C@@H](CCCNC(=N)N)C(=O)N[C@@H](CCCCN)C(=O)N2)NC(=O)[C@H](CSSC[C@@H](C(=O)N[C@@H](CCCCN)C(=O)N[C@@H](Cc2ccc(O)cc2)C(=O)N[C@H](C(=O)N[C@@H](Cc2ccccc2)C(N)=O)C(C)C)NC(=O)[C@H](CCC(=O)O)NC(=O)[C@H](CCCCN)NC(=O)[C@H](Cc2cnc[nH]2)NC(=O)[C@H]([C@@H](C)O)NC(=O)[C@H](CCCNC(=N)N)NC(=O)[C@H](CO)NC3=O)NC(=O)[C@H](CCCCN)NC(=O)[C@H](CC(=O)O)NC(=O)[C@H](CC(N)=O)NC(=O)[C@H](CC(=O)O)NC(=O)[C@@H]2CCCN2C1=O [SEQ ID NO: 30, [Glu29]GpTx-1(1-34)] (H-DCLGFMRKCIPDNDKCCRPNLVCSRTHKECKYVF-NH2; disulfide 2-17, 9-23, 16-30)
locomotor activity in the open field analysis [4]: no significant effect | terminal exposure (peptide plasma concentration at 2 h post peptide injection) ([4]; later studies): 0.771 ± 0.272 µM | IC50 (hNav1.3 [5]; Table 24, use, […]): 16100 nM | terminal exposure (peptide plasma concentration at 45 min post formalin injection) ([1]; male, CD-1, mouse, sc, 5 mg/kg, […]): 0.502 ± 0.271 µM

[Phe6,Atz(500 Da EtO-PEG*-{[Phe6,Atz13*]GpTx-1(1-34)})13]GpTx-1(1-34) [Homodimeric Conjugate 2]
Nav1.3/Nav1.7 Use (hNav1.3 [6]): 2.4 | IC50 (hNav1.3 [6]; read-out: Nav1.3 Use IC50): 46 nM | IC50 (hNav1.7 [2]; read-out: Nav1.7 Use IC50): 19 nM | Nav1.4/Nav1.3 Use (hNav1.4): 7 | Nav1.4/Nav1.7 Use (hNav1.4): 16 | IC50 (hNav1.4; read-out: Nav1.4 Use IC50): 299 nM | Nav1.5/Nav1.3 Use (hNav1.5 [3]): 19 | Nav1.5/Nav1.7 Use (hNav1.5 [3]): 45 | IC50 (hNav1.5 [3]; read-out: Nav1.5 Use IC50): 863 nM

CSCC[C@@H]1NC(=O)[C@H](Cc2ccccc2)NC(=O)CNC(=O)[C@H](CC(C)C)NC(=O)[C@@H](NC(=O)[C@@H](N)CC(=O)O)CSSC[C@@H]2NC(=O)[C@@H]3CSSC[C@@H](C(=O)N[C@@H](CCCCN)C(=O)N[C@@H](Cc4ccc(O)cc4)C(=O)N[C@H](C(=O)N[C@@H](Cc4ccccc4)C(N)=O)C(C)C)NC(=O)[C@H](Cc4c[nH]c5ccccc45)NC(=O)[C@H](CCCCN)NC(=O)[C@H](Cc4c[nH]cn4)NC(=O)[C@H]([C@@H](C)O)NC(=O)[C@H](CCCNC(=N)N)NC(=O)[C@H](CO)NC(=O)[C@H](CSSC[C@H](NC(=O)[C@H](CCCCN)NC(=O)[C@H](CCCNC(=N)N)NC1=O)C(=O)N[C@@H](Cc1cccc4ccccc14)C(=O)N1CCC[C@H]1C(=O)N[C@@H](CC(=O)O)C(=O)N[C@@H](CC(N)=O)C(=O)N[C@@H](CC(=O)O)C(=O)N[C@@H](CCCCN)C(=O)N3)NC(=O)[C@H](C(C)C)NC(=O)[C@H](CC(C)C)NC(=O)[C@H](CC(N)=O)NC(=O)[C@@H]1CCCN1C(=O)[C@H](CCCNC(=N)N)NC2=O [SEQ ID NO: 78, [1-Nal10]GpTx-1(1-34)]
IC50 (hNav1.5 [7]): 10 µM | IC50 (hNav1.7 [8]): 150 nM | IC50 (hNav1.3 [5]; Use): 210 nM | % peptide remaining [9, 11]: 100% | % peptide remaining ([9]; incubation time 2 hr): 99% | % peptide remaining ([9]; incubation time 4 hr): 93% | % peptide remaining ([9]; incubation time 8 hr): 97% | % peptide remaining ([9]; incubation time 24 hr): 82% | % peptide remaining [10, 11]: 100% | % peptide remaining ([10]; incubation time 2 hr): 98% | % peptide remaining ([10]; incubation time 4 hr): 92% | % peptide remaining ([10]; incubation time 8 hr): 92% | % peptide remaining ([10]; incubation time 24 hr): 88%

CN1CC[C@]23c4c5ccc(O)c4O[C@H]2[C@@H](O)C=C[C@H]3[C@H]1C5 [morphine, reference compound]
time spent lifting and/or licking the affected paw, first phase (0-5 minutes post formalin injection) ([1]; mouse): Neither the peptide nor the morphine positive control significantly reduced

CC[C@H](C)[C@@H]1NC(=O)[C@@H]2CSSC[C@@H]3NC(=O)[C@H](C(C)C)NC(=O)[C@H](CC(C)C)NC(=O)[C@H](CC(N)=O)NC(=O)[C@@H]4CCCN4C(=O)[C@H](CCCNC(=N)N)NC(=O)[C@H](CSSC[C@H](NC(=O)[C@@H](N)CC(=O)O)C(=O)N[C@@H](CC(C)C)C(=O)NCC(=O)N[C@@H](Cc4ccccc4)C(=O)N[C@@H](CCSC)C(=O)N[C@@H](CCCNC(=N)N)C(=O)N[C@@H](CCCCN)C(=O)N2)NC(=O)[C@H](CSSC[C@@H](C(=O)N[C@@H](CCCCN)C(=O)N[C@@H](Cc2ccc(O)cc2)C(=O)N[C@H](C(=O)N[C@@H](Cc2ccccc2)C(N)=O)C(C)C)NC(=O)[C@H](CCC(=O)O)NC(=O)[C@H](CCCCN)NC(=O)[C@H](Cc2c[nH]cn2)NC(=O)[C@H]([C@@H](C)O)NC(=O)[C@H](CCCNC(=N)N)NC(=O)[C@H](CO)NC3=O)NC(=O)[C@H](CCCCN)NC(=O)[C@H](CC(=O)O)NC(=O)[C@H](CC(N)=O)NC(=O)[C@H](CC(=O)O)NC(=O)[C@@H]2CCCN2C1=O [SEQ ID NO: 30, [Glu29]GpTx-1(1-34)] (H-DCLGFMRKCIPDNDKCCRPNLVCSRTHKECKYVF-NH2; disulfide 2-17, 9-23, 16-30)
time spent lifting/licking, second phase ([1]; mouse): no significant effect
